Each structure is given as a SMILES string.

The text below walks through data of publication PMC12915096, “AI‐Driven Acceleration of Fluorescence Probe Discovery” (Advanced Science, 2025).

This assay addresses T1, tau aggregates in cleared P301S mice brain (Homo sapiens, UniProt P10636, P618S).
T1 construct: from tissue; host or cells: brain of 9-month-old P301S (PS19) tau transgenic mice, in vivo and ex vivo
As to the kind of experiment: 3D transparent brain imaging after tissue clearing. It counts as in vivo. The conditions noted are these: transgenic mouse brains, ex vivo. Here is the method:
After two‐photon imaging, mice were anesthetized by isoflurane and were transcardially perfused with ice‐cold 1×PBS followed with ice‐cold 4% PFA solution. Brain was incubated in 4% PFA at 4°C with shaking overnight. The samples were then washed with 1×PBS for at least 2 h twice at room temperature. The clearing of the fixed samples was conducted with Nuohai enhanced tissue clearing kit (NH‐CR‐230701, Nuohai Life Science (Shanghai) Co., Ltd). Briefly, samples were immersed individually in 20 mL of solution A for 7–8 days (refreshing the solution every two days) with gentle shaking at 37°C. The sample was washed in 1×PBS for 6 h with gentle shaking at room temperature and the PBS refreshed every 2 h. Finally, the samples were RI matched for 3D imaging. 3D fluorescence imaging of the cleared tissues was conducted with a Nuohai LS 18 tiling light sheet microscope (Nuohai Life Science Co., Ltd). A 4‐tile tiling light sheet was used to illuminate the samples, and a 1 × 0.25 NA objective (Olympus MVPLAPO) was used to collect the fluorescence. The magnification of the microscope was set at 4×, and the spatial resolution was roughly 3.3 × 3.3 × 7 µm^3 at the selected imaging conditions. The collected images were processed with the LS 18 image combine software (Nuohai Life Science Co., Ltd) and rendered using Amira (Thermo Fisher Scientific, USA). […]

T1 sequence (P10636 1-412 isoform P10636-7 P272S): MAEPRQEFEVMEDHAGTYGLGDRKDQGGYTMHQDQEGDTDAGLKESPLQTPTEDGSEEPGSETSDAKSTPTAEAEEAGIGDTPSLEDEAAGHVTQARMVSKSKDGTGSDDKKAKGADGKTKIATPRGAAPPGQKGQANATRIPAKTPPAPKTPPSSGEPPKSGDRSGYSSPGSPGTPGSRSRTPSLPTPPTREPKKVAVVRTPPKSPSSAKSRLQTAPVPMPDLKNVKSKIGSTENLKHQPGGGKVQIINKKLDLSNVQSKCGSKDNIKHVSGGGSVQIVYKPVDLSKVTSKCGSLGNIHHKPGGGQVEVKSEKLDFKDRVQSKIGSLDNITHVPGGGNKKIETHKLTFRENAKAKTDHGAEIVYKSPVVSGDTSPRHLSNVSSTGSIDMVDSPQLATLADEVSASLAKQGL

`O=C(O)c1cc(/C=C/c2ccc(/C=C/c3ccc(O)c(C(=O)O)c3)c(F)c2)ccc1O` [FSB]: the “Tau labeling signal after 8 days of tissue clearing” value is reported as “nearly abolished”.
